Test results taken from patent US20090312288A1 (TAKEDA PHARMACEUTICAL COMPANY LIMITED, priority 2008, published 2009).

Target: Aurora B/INCENP (Homo sapiens, UniProt Q96GD4)
Assay: Determination of inhibition of AIK: Aurora B/INCENP direct fluorescence polarization (IMAP) assay
Format: biochemical
Settings: 10 uM ATP, 0.8 nM Aurora B/INCENP; values given as bins; read-out: IC50 of Exemplified Compounds Against AIK B

Sequence of Aurora B/INCENP (Q96GD4 whole entry): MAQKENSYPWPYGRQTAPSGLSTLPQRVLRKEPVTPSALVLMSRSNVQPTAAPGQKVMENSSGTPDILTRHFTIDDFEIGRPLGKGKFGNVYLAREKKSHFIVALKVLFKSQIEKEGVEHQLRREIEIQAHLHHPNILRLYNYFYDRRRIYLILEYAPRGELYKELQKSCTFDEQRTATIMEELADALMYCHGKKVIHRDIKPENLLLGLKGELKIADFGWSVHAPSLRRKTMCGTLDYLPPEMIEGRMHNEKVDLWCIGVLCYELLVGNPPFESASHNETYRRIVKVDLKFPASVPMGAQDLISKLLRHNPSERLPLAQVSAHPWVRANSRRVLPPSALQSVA
Sequence of Aurora B/INCENP (Q9NQS7 whole entry partner): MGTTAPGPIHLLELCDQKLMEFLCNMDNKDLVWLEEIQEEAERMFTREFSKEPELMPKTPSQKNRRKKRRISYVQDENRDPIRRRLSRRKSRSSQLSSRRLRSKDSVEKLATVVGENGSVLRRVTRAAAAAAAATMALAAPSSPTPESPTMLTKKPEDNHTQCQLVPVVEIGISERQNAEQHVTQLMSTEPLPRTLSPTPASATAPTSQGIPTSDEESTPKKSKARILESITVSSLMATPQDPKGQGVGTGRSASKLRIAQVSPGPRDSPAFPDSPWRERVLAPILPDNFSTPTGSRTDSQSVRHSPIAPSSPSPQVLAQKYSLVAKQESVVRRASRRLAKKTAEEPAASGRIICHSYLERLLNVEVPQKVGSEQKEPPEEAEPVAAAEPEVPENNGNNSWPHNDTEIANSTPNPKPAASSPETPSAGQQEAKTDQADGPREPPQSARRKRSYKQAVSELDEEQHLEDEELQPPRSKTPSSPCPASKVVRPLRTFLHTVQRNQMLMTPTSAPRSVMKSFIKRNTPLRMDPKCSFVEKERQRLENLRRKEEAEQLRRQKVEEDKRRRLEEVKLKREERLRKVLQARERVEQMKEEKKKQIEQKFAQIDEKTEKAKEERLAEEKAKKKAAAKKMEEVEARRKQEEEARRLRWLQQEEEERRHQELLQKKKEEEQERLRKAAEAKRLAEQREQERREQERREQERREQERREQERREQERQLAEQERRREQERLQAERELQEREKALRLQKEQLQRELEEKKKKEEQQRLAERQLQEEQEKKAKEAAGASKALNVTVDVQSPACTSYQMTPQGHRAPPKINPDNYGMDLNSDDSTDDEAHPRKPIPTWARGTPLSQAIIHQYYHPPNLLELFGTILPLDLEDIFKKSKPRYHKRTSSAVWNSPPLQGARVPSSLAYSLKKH

Row | IC50 | Compound
1 | 4 to 5.5 nM | CCS(=O)(=O)c1cccc(-c2ccc(OCc3ccncc3)c3[nH]c4ncc(C)cc4c23)c1 [Compound 411, 5-(3-(ethylsulfonyl)phenyl)-3-methyl-8-(pyridin-4-ylmethoxy)-9H-pyrido[2,3-b]indole]
2 | 8.6 to 13 nM | CCS(=O)(=O)c1cccc(-c2ccc(OCCCc3cccnc3)c3[nH]c4ncc(C)cc4c23)c1 [Compound 414, 5-(3-(ethylsulfonyl)phenyl)-3-methyl-8-(3-(pyridin-3-yl)propoxy)-9H-pyrido[2,3-b]indole]
3 | 5.6 to 8.5 nM | CCS(=O)(=O)c1cccc(-c2ccc(OCCCn3cnnc3)c3[nH]c4ncc(C)cc4c23)c1 [Compound 416, 8-(3-(4H-1,2,4-triazol-4-yl)propoxy)-5-(3-(ethylsulfonyl)phenyl)-3-methyl-9H-pyrido[2,3-b]indole]
4 | > 13 nM | CCS(=O)(=O)c1cccc(-c2ccc(OCCCn3cccc3)c3[nH]c4ncc(C)cc4c23)c1 [Compound 421, 8-(3-(1H-pyrrol-1-yl)propoxy)-5-(3-(ethylsulfonyl)phenyl)-3-methyl-9H-pyrido[2,3-b]indole]
5 | 8.6 to 13 nM | CCS(=O)(=O)c1cccc(-c2ccc(OCC3CCCCO3)c3[nH]c4ncc(C)cc4c23)c1 (stereo not shown) [Compound 423, 5-(3-(ethylsulfonyl)phenyl)-3-methyl-8-((tetrahydro-2H-pyran-2-yl)methoxy)-9H-pyrido[2,3-b]indole]
6 | 8.6 to 13 nM | CCN(CC)CCCOc1ccc(-c2cccc(S(=O)(=O)CC)c2)c2c1[nH]c1ncc(C)cc12 [Compound 425, N,N-diethyl-3-(5-(3-(ethylsulfonyl)phenyl)-3-methyl-9H-pyrido[2,3-b]indol-8-yloxy)propan-1-amine]
7 | 5.6 to 8.5 nM | CCS(=O)(=O)c1cccc(-c2ccc(OCCCOC)c3[nH]c4ncc(C)cc4c23)c1 [Compound 427, 5-(3-(ethylsulfonyl)phenyl)-8-(3-methoxypropoxy)-3-methyl-9H-pyrido[2,3-b]indole]
8 | < 4 nM | CCS(=O)(=O)c1cccc(-c2ccc(OCc3cccc(F)n3)c3[nH]c4ncc(C)cc4c23)c1 [Compound 433, 5-(3-(ethylsulfonyl)phenyl)-8-((6-fluoropyridin-2-yl)methoxy)-3-methyl-9H-pyrido[2,3-b]indole]
9 | > 13 nM | CCS(=O)(=O)c1cccc(-c2ccc(OCCCN3CCOCC3)c3[nH]c4ncc(C)cc4c23)c1 [Compound 440, 4-(3-(5-(3-(ethylsulfonyl)phenyl)-3-methyl-9H-pyrido[2,3-b]indol-8-yloxy)propyl)morpholine]
10 | < 4 nM | Cc1cnc2[nH]c3c(OCCCN4CCC(OP(=O)(O)O)CC4)ccc(-c4cccc(S(=O)(=O)C5CC5)c4)c3c2c1 [Compound 444, 1-(3-(5-(3-(cyclopropylsulfonyl)phenyl)-3-methyl-9H-pyrido[2,3-b]indol-8-yloxy)propyl)piperidin-4-yl dihydrogen phosphate]
11 | < 4 nM | CCS(=O)(=O)c1cccc(-c2ccc(OCCCN3CCC(COP(=O)(O)O)CC3)c3[nH]c4ncc(C)cc4c23)c1 [Compound 449, (1-(3-(5-(3-(ethylsulfonyl)phenyl)-3-methyl-9H-pyrido[2,3-b]indol-8-yloxy)propyl)piperidin-4-yl)methyl dihydrogen phosphate]
12 | 8.6 to 13 nM | CCS(=O)(=O)c1cccc(-c2cc(C(=O)NC3CCNCC3)c(C)c3[nH]c4ncc(C)cc4c23)c1 [Compound 451, 5-(3-(ethylsulfonyl)phenyl)-3,8-dimethyl-N-(piperidin-4-yl)-9H-pyrido[2,3-b]indole-7-carboxamide]
13 | 8.6 to 13 nM | CCS(=O)(=O)c1cccc(-c2cc(C(=O)N3CCC(CCO)CC3)c(C)c3[nH]c4ncc(C)cc4c23)c1 [Compound 454, (5-(3-(ethylsulfonyl)phenyl)-3,8-dimethyl-9H-pyrido[2,3-b]indol-7-yl)(4-(2-hydroxyethyl)piperidin-1-yl)methanone]
14 | 5.6 to 8.5 nM | CCS(=O)(=O)c1cccc(-c2cc(C(=O)NC3CCN(CCO)CC3)c(C)c3[nH]c4ncc(C)cc4c23)c1 [Compound 456, 5-(3-(ethylsulfonyl)phenyl)-N-(1-(2-hydroxyethyl)piperidin-4-yl)-3,8-dimethyl-9H-pyrido[2,3-b]indole-7-carboxamide]
15 | 5.6 to 8.5 nM | CCS(=O)(=O)c1cccc(-c2c(Cl)cnc3[nH]c4c(OC)cccc4c23)c1 [Compound 464, 3-chloro-4-(3-(ethylsulfonyl)phenyl)-8-methoxy-9H-pyrido[2,3-b]indole]
16 | < 4 nM | (3-chloro-5-(3-(ethylsulfonyl)phenyl)-9H-pyrido[2,3-b]indol-8-ol [Compound 219]
